By IC50 is commonly meant the concentration that inhibits the measured activity by half. A lower IC50 goes with inhibition by little substance.

For this assay, the target named is T1, Human Glucocorticoid Receptor (Homo sapiens, UniProt P04150).
T1 construct: endogenous in cells; host or cells: cytosol from IM-9 cell line
T1 sequence (P04150 1-777): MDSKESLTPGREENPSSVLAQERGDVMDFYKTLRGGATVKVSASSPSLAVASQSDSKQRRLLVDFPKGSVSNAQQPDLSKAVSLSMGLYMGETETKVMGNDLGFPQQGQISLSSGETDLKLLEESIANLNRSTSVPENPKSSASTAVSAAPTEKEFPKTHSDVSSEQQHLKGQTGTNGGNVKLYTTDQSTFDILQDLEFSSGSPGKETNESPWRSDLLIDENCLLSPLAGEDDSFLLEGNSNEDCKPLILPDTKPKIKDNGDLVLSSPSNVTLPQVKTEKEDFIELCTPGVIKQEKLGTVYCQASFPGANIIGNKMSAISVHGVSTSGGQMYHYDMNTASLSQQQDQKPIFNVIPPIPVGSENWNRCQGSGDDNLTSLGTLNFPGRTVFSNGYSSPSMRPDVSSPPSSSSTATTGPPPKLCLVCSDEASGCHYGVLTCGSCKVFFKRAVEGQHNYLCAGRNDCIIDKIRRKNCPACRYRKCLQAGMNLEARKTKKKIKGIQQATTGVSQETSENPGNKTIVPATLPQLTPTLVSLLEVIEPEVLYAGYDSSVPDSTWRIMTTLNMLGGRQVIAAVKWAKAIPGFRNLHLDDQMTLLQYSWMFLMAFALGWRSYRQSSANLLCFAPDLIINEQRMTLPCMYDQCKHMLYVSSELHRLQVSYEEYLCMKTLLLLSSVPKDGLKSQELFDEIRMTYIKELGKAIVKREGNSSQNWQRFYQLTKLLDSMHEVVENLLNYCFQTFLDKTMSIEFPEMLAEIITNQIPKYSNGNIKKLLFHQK
Put plainly: Competition Binding in IM-9 Human Glucocorticoid Receptor (GR IM-9). The settings on record: cytosol from IM-9 cell line, 1.5 nM [3H]-Dexamethasone, 4° C. for 6 hours. The protocol: Competition Binding in IM-9 Human Glucocorticoid Receptor (GR IM-9)
Glucocorticoid receptor competition binding assays were carried out in a polypropilene 96-well plate. In each well was incubated 100 μg of cytosol from IM-9 cell line, 1.5 nM [3H]-Dexamethasone (71 Ci/mmol, 1 mCi/ml, Perkin Elmer NET1192001MC) and compounds studied and standard. Non-specific binding was determined in the presence of Triamcinolone 10 μM (Sigma Aldrich T6376).
The reaction mixture (Vt: 200 μl/well) was incubated at 4° C. for 6 hours, 180 μL was transferred to GF/B 96-well plate (Millipore, Madrid, Spain) pretreated with 0.5% of PEI and treated with binding buffer (TES 10 mM, sodium molybdate 10 mM, EDTA 1 mM, pH 7.4, 2-mercaptoethanol 20 mM, Glycerol 10%) after was filtered and washed six times with 250 μl wash buffer (TES 10 mM, sodium molybdate 10 mM, EDTA 1 mM, pH 7.4, 2-mercaptoethanol 20 mM Glycerol 10%), before measuring in a microplate beta scintillation counter (Microbeta Trilux, PerkinElmer, Madrid, Spain).
`CC(=O)C1=C(C)NC(C2CC2)=C(C(=O)OC(C)(C)c2ccc(F)cc2)C1c1csc2c(Br)cccc12` (centres unmarked) [Example C96, 2-(4-fluorophenyl)propan-2-yl 5-acetyl-4-(7-bromobenzo[b]thiophen-3-yl)-2-cyclopropyl-6-methyl-1,4-dihydropyridine-3-carboxylate] registered an IC50 of 100 to 1000 nM.

Consider `COC(=O)C1=C(C2CC2)NC(C)=C(C(C)=O)C1c1csc2c(F)cccc12` (centres unmarked) [Example C98, Methyl 5-acetyl-2-cyclopropyl-4-(7-fluorobenzo[b]thiophen-3-yl)-6-methyl-1,4-dihydropyridine-3-carboxylate], for which the IC50 fell in the range of 100 to 1000 nM. Turning to `COC(=O)C1=C(C2CC2)NC(C2CC2)=C(C(=O)OCC2CC2)C1c1csc2c(C#N)cccc12` (centres unmarked) [Example C110, 3-(cyclopropylmethyl) 5-methyl 4-(7-cyanobenzo[b]thiophen-3-yl)-2,6-dicyclopropyl-1,4-dihydropyridine-3,5-dicarboxylate], the IC50 is below 100 nM. The figure for `CC(=O)C1=C(C)NC(C2CC2)=C(C(=O)OCC2CC2)C1c1csc2ncccc12` (centres unmarked) [Example C99, Cyclopropylmethyl 5-acetyl-2-cyclopropyl-6-methyl-4-(thieno[2,3-b]pyridin-3-yl)-1,4-dihydropyridine-3-carboxylate] is 100 to 1000 nM; for `CC(=O)C1=C(C)NC(C2CC2)=C(C(=O)OCc2ccncc2)C1c1csc2ncccc12` (centres unmarked) [Example J36, Pyridin-4-ylmethyl 5-acetyl-2-cyclopropyl-6-methyl-4-(thieno[2,3-b]pyridin-3-yl)-1,4-dihydropyridine-3-carboxylate] it is at least 1000 nM. In turn, `COC(=O)C1=C(C(F)(F)F)NC(N)=C(C(=O)OCC2CC2)C1c1csc2c(C#N)cccc12` (centres unmarked) [Example D56, 3-(Cyclopropylmethyl) 5-methyl 2-amino-4-(7-cyanobenzo[b]thiophen-3-yl)-6-(trifluoromethyl)-1,4-dihydropyridine-3,5-dicarboxylate] came in with an IC50 below 100 nM. To `COC(=O)C1=C(C2CC2)NC(C)=C(C(C)=O)C1c1csc2c(C3CC3)cccc12` (centres unmarked) [Example L14, Methyl 5-acetyl-2-cyclopropyl-4-(7-cyclopropylbenzo[b]thiophen-3-yl)-6-methyl-1,4-dihydropyridine-3-carboxylate] belongs at least 1000 nM. The figure for `COC(=O)C1=C(C)NC(N)=C(C(=O)OCC2CC2)C1c1csc2c(C#N)c(C(F)(F)F)ccc12` (centres unmarked) [Example D54, 3-(Cyclopropylmethyl) 5-methyl 2-amino-4-(7-cyano-6-(trifluoromethyl)benzo[b]thiophen-3-yl)-6-methyl-1,4-dihydropyridine-3,5-dicarboxylate] is below 100 nM. `COC(=O)C1=C(COCCN)NC(C)=C(C(C)=O)C1c1csc2ccccc12` (centres unmarked) [Example C114, Methyl 5-acetyl-2-((2-aminoethoxy)methyl)-4-(benzo[b]thiophen-3-yl)-6-methyl-1,4-dihydropyridine-3-carboxylate] came in with an IC50 of at least 1000 nM. `CC(=O)C1=C(C)NC(C2CC2)=C(C(=O)OC2CCCCC2)C1c1csc2ncccc12` (centres unmarked) [Example C91, Cyclohexyl 5-acetyl-2-cyclopropyl-6-methyl-4-(thieno[2,3-b]pyridin-3-yl)-1,4-dihydropyridine-3-carboxylate]: the IC50 was below 100 nM.

Regarding `CC(=O)C1=C(C)NC(N)=C(C(=O)OC2CCCC2)C1c1csc2c(C#N)cccc12` (centres unmarked) [Example D8, Cyclopentyl 5-acetyl-2-amino-4-(7-cyanobenzo[b]thiophen-3-yl)-6-methyl-1,4-dihydropyridine-3-carboxylate], the IC50 was below 100 nM. Consider `CC(=O)C1=C(C)NC(C2CC2)=C(C(=O)OCC2CC2)C1c1csc2c(C#N)cccc12` (centres unmarked) [Example C101, Cyclopropylmethyl 5-acetyl-4-(7-cyanobenzo[b]thiophen-3-yl)-2-cyclopropyl-6-methyl-1,4-dihydropyridine-3-carboxylate], for which the IC50 is below 100 nM. Consider `COC(=O)C1=C(C2CCCCC2)NC(C)=C(C(C)=O)C1c1csc2c(Br)cccc12` (centres unmarked) [Example C106, Methyl 5-acetyl-4-(7-bromobenzo[b]thiophen-3-yl)-2-cyclohexyl-6-methyl-1,4-dihydropyridine-3-carboxylate], for which the IC50 lay within 100 to 1000 nM. `COC(=O)C1=C(C2CCC2)NC(C)=C(C(C)=O)C1c1csc2c(Br)cccc12` (centres unmarked) [Example C102, Methyl 5-acetyl-4-(7-bromobenzo[b]thiophen-3-yl)-2-cyclobutyl-6-methyl-1,4-dihydropyridine-3-carboxylate]: the IC50 fell in the range of 100 to 1000 nM. `CC1=C(C#N)C(c2csc3c(C#N)cccc23)C(C(=O)OCC2CC2)=C(C2CC2)N1` (centres unmarked) [Example C111, Cyclopropylmethyl 5-cyano-4-(7-cyanobenzo[b]thiophen-3-yl)-2-cyclopropyl-6-methyl-1,4-dihydropyridine-3-carboxylate] registered an IC50 below 100 nM. As to `COC(=O)C1=C(N)NC(C)=C(C#N)C1c1csc2c(C#N)cccc12` (centres unmarked) [Example D12, Methyl 2-amino-5-cyano-4-(7-cyanobenzo[b]thiophen-3-yl)-6-methyl-1,4-dihydropyridine-3-carboxylate], the IC50 is below 100 nM. In turn, `COC(=O)C1=C(C2CC2)NC(N)=C(C(=O)OCC2CC2)C1c1csc2c(C#N)cccc12` (centres unmarked) [Example D19, 3-(cyclopropylmethyl) 5-methyl 2-amino-4-(7-cyanobenzo[b]thiophen-3-yl)-6-cyclopropyl-1,4-dihydropyridine-3,5-dicarboxylate] came in with an IC50 below 100 nM. The figure for `CC(=O)C1=C(C)NC(C)=C(C(=O)OCc2ccncc2F)C1c1csc2ncccc12` (centres unmarked) [Example C68, (3-fluoropyridin-4-yl)methyl 5-acetyl-2,6-dimethyl-4-(thieno[2,3-b]pyridin-3-yl)-1,4-dihydropyridine-3-carboxylate] is at least 1000 nM; for `COC(=O)C1=C(C2CC2)NC(C)=C(C(C)=O)C1c1csc2c(-c3ccccc3)cccc12` (centres unmarked) [Example N1, Methyl 5-acetyl-2-cyclopropyl-6-methyl-4-(7-phenylbenzo[b]thiophen-3-yl)-1,4-dihydropyridine-3-carboxylate] it is at least 1000 nM; for `C#CCOC(=O)C1=C(N)NC(C)=C(C(=O)OC)C1c1csc2c(C#N)cccc12` (centres unmarked) [Example D55, 5-Methyl 3-prop-2-yn-1-yl 2-amino-4-(7-cyanobenzo[b]thiophen-3-yl)-6-methyl-1,4-dihydropyridine-3,5-dicarboxylate] it is below 100 nM. The figure for `COC(=O)C1=C(C)NC(N)=C(C(=O)OCC(C)(C)F)C1c1csc2c(C#N)cccc12` (centres unmarked) [Example D53, 3-(2-Fluoro-2-methylpropyl) 5-methyl 2-amino-4-(7-cyanobenzo[b]thiophen-3-yl)-6-methyl-1,4-dihydropyridine-3,5-dicarboxylate] is below 100 nM; for `COC(=O)C1=C(C)NC(C2CC2)=C(C(=O)OC)C1c1csc2c(C#N)cccc12` (centres unmarked) [Example C103, Dimethyl 4-(7-cyanobenzo[b]thiophen-3-yl)-2-cyclopropyl-6-methyl-1,4-dihydropyridine-3,5-dicarboxylate] it is below 100 nM. The figure for `COC(=O)C1=C(N)NC(C2CC2)=C(C(=O)OCC2CC2)C1c1csc2c(C#N)cccc12` (centres unmarked) [Example D21, 5-(cyclopropylmethyl) 3-methyl 2-amino-4-(7-cyanobenzo[b]thiophen-3-yl)-6-cyclopropyl-1,4-dihydropyridine-3,5-dicarboxylate] is below 100 nM; for `COC(=O)C1=C(C)NC(N)=C(C(=O)OCC2CC2)C1c1csc2c(C#N)cc(C#N)cc12` (centres unmarked) [Example D48, 3-(Cyclopropylmethyl) 5-methyl 2-amino-4-(5,7-dicyanobenzo[b]thiophen-3-yl)-6-methyl-1,4-dihydropyridine-3,5-dicarboxylate] it is below 100 nM. As for `COC(=O)C1=C(COCCN)NC(C)=C(C(C)=O)C1c1csc2c(C#N)cccc12` (centres unmarked) [Example C116, Methyl 5-acetyl-2-((2-aminoethoxy)methyl)-4-(7-cyanobenzo[b]thiophen-3-yl)-6-methyl-1,4-dihydropyridine-3-carboxylate], the IC50 lay within 100 to 1000 nM. The figure for `CC(=O)C1=C(C)NC(C2CC2)=C(C(=O)OCC2CC2)C1c1csc2c(Br)cccc12` (centres unmarked) [Example C84, Cyclopropylmethyl 5-acetyl-4-(7-bromobenzo[b]thiophen-3-yl)-2-cyclopropyl-6-methyl-1,4-dihydropyridine-3-carboxylate] is below 100 nM.

The values above are taken from patent publication US11453660B2, “Androgen receptor and glucocorticoid receptor modulators” (ONCOSTELLAE, S.L., priority 2017, dated 2022).
